Measurements: ChEMBL document CHEMBL1129843, “Synthesis of a pyrimido[4,5-b]azepine analog of 5,10-dideaza-5,6,7,8-tetrahydrofolic acid (DDATHF)” (Bioorg Med Chem Lett, 1997)

T1: Trifunctional purine biosynthetic protein adenosine-3 (Mus musculus, UniProt Q64737)
T1 sequence (Q64737 whole entry): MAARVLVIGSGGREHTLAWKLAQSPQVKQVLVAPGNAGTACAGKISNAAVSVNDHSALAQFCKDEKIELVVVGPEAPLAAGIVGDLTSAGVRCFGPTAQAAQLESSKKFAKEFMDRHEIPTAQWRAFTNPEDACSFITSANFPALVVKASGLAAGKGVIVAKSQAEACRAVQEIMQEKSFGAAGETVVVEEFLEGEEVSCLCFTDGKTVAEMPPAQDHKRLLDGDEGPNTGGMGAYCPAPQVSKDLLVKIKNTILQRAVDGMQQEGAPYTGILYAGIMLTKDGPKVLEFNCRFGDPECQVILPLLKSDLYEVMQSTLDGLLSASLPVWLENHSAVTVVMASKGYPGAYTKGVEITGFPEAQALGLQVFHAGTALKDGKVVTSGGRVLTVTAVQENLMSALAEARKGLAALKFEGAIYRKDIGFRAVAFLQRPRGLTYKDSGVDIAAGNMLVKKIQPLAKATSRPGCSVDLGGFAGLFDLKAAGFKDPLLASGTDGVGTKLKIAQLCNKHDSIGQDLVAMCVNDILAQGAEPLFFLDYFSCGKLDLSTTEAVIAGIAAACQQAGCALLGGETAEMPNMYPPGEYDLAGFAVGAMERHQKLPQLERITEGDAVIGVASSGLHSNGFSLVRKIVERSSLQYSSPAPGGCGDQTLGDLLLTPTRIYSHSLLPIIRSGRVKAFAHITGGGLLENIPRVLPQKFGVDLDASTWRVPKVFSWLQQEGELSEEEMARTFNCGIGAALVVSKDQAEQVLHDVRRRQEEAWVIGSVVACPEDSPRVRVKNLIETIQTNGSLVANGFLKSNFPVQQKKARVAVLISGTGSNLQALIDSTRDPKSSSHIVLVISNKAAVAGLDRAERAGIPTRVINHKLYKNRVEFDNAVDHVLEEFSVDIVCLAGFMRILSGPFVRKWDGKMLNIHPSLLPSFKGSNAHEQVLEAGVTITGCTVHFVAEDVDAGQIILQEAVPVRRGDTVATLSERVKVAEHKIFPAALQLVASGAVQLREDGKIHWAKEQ

T2: Folylpolyglutamate synthase, mitochondrial (Homo sapiens) (UniProt Q05932)
T2 sequence (whole entry): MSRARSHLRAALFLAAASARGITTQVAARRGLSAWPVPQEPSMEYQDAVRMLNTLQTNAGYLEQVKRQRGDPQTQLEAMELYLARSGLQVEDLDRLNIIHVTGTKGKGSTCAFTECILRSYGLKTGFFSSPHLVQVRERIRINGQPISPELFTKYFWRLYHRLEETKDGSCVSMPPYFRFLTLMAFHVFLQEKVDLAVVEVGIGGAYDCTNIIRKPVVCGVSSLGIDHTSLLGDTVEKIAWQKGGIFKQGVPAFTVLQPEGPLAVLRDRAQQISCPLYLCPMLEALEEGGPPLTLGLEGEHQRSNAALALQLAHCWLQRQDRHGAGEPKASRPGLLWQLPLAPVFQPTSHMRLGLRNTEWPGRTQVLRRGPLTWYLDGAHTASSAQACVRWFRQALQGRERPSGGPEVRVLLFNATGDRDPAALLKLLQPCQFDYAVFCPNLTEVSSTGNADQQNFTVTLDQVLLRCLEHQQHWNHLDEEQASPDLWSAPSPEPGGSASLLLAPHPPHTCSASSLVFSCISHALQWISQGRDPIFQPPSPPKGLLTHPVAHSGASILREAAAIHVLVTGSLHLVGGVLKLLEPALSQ


Experiments:
[1] = target: T1, Trifunctional purine biosynthetic protein adenosine-3; experiment: Tested in vitro for its inhibition of trifunctional glycinamide ribonucleotide formyltransferase (GARFT) isolated from murine L1210 leukemia cells
CCRF-CEM = experiment: Tested in vitro for cellular cytotoxicity against human T-cell derived lymphoblastic leukemia (CCRF-CEM) cells; format: functional, cell-based
[2] = target: T2, Folylpolyglutamate synthase, mitochondrial (Homo sapiens); experiment: Ratio of Vmax to Km value and expressed as k'; settings: Sus scrofa
[3] = substrate: Nc1cc2c(c(O)n1)CC(CCc1ccc(C(=O)N[C@@H](CCC(=O)O)C(=O)O)cc1)CCN2; settings: Sus scrofa
Description: In vitro Folyl-poly-gamma-glutamyl synthetase (FPGS) affinity

| Ki [1] | Molecule | IC50 (CCRF-CEM) | k' [2] | Km [3] |
| --- | --- | --- | --- | --- |
| 120 nM | Nc1nc2c(c(=O)[nH]1)C[C@H](CCc1ccc(C(=O)NC(CCC(=O)O)C(=O)O)cc1)CN2 (some centres undefined) | 16 nM | – | – |
| 59.7 nM | Nc1nc2c(c(=O)[nH]1)C[C@@H](CCc1ccc(C(=O)N[C@@H](CCC(=O)O)C(=O)O)cc1)CN2 [LOMETREXOL] | 15.2 nM | 59 | – |
| – | Folylpolyglutamate synthase, mitochondrial (Homo sapiens), Q05932 (protein) MSRARSHLRAALFLAAASARGITTQVAARRGLSAWPVPQEPSMEYQDAVRMLNTLQTNAGYLEQVKRQRGDPQTQLEAMELYLARSGLQVEDLDRLNIIHVTGTKGKGSTCAFTECILRSYGLKTGFFSSPHLVQVRERIRINGQPISPELFTKYFWRLYHRLEETKDGSCVSMPPYFRFLTLMAFHVFLQEKVDLAVVEVGIGGAYDCTNIIRKPVVCGVSSLGIDHTSLLGDTVEKIAWQKGGIFKQGVPAFTVLQPEGPLAVLRDRAQQISCPLYLCPMLEALEEGGPPLTLGLEGEHQRSNAALALQLAHCWLQRQDRHGAGEPKASRPGLLWQLPLAPVFQPTSHMRLGLRNTEWPGRTQVLRRGPLTWYLDGAHTASSAQACVRWFRQALQGRERPSGGPEVRVLLFNATGDRDPAALLKLLQPCQFDYAVFCPNLTEVSSTGNADQQNFTVTLDQVLLRCLEHQQHWNHLDEEQASPDLWSAPSPEPGGSASLLLAPHPPHTCSASSLVFSCISHALQWISQGRDPIFQPPSPPKGLLTHPVAHSGASILREAAAIHVLVTGSLHLVGGVLKLLEPALSQ | – | – | 39 µM |

| Molecule | Ki [1] | IC50 (CCRF-CEM) | k' [2] | Km [3] |
| --- | --- | --- | --- | --- |
| Nc1cc2c(c(O)n1)CC(CCc1ccc(C(=O)N[C@@H](CCC(=O)O)C(=O)O)cc1)CCN2 (some centres undefined) | 147 nM | 47 nM | 20 | – |
